According to ChEMBL document CHEMBL1201862, “PubChem BioAssay data set” (2004):
The source made the active and inactive calls.

Legend:
[1] = target: T1, Epstein-Barr nuclear antigen 1 (Epstein-Barr virus (strain B95-8) (HHV-4) (Human herpesvirus 4), UniProt P03211); experiment: inhibition of EBV nuclear antigen 1 DNA binding – biochemical, fluorescence polarization, 1536-well, dose response (AID 2381); set-up: species or system human gammaherpesvirus 4;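 also: fluorescence polarization of a Cy5 DNA probe bound by EBNA-1 protein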
T1 sequence (P03211 whole entry): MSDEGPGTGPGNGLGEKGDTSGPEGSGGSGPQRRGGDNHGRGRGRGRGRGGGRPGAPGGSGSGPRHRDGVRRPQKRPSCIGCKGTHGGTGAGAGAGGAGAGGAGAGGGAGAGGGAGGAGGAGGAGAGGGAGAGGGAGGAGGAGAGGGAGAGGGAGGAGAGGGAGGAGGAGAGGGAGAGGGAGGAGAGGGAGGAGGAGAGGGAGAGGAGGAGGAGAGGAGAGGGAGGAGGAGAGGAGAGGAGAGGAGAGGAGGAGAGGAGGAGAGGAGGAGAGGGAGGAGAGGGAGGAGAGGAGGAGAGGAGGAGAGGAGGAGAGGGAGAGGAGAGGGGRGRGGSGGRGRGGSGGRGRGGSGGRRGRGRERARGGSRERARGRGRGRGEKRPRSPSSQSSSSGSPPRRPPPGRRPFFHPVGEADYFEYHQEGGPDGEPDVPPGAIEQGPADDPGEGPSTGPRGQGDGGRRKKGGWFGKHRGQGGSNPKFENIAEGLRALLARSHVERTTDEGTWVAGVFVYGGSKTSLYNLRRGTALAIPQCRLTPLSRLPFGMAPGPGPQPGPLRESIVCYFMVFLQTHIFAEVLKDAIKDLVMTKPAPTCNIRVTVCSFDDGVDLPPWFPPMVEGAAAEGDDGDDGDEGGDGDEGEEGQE

[2] = target: T2, Lytic switch protein BZLF1 (Epstein-Barr virus (strain B95-8) (HHV-4) (Human herpesvirus 4), UniProt P03206); experiment: inhibition of BZLF1 ZTA DNA binding – biochemical, fluorescence polarization, Epstein-Barr virus, 1536-well, counter-screen for EBNA-1 inhibitor project, dose response (AID 2377); set-up: species or system human gammaherpesvirus 4;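 also: fluorescence polarization of Cy5-labelled ZRE DNA probe bound by purified Zta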
T2 sequence (P03206 whole entry): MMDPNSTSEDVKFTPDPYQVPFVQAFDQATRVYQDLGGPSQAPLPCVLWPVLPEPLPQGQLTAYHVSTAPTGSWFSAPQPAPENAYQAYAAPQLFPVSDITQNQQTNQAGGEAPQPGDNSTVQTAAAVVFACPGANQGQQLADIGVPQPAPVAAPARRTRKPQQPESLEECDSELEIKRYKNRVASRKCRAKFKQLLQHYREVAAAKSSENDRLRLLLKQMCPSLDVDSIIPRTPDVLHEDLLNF

[3] = M. tuberculosis H37Rv growth inhibitors, H37Rv strain (AID 1626); type: functional
Vero [4] = experiment: mammalian cell viability reduction – secondary assay, cytotoxicity control for West Nile virus antiviral project, dose response (AID 1650); type: functional; conditions: Chlorocebus sabaeus
Vero [5] = experiment: inhibition of WNV-induced cytopathic effect – cell-based, CPE readout (AID 1621); type: functional; conditions: Chlorocebus sabaeus
[6] = target: T3, Acyl-homoserine lactone acylase PvdQ (Pseudomonas aeruginosa (strain LESB58), UniProt Q9I194); experiment: PvdQ acylase enzyme activity blockers – biochemical, fluorescence, plate reader and imaging, cherry-picks, dose response (AID 493231)
T3 sequence (Q9I194 whole entry): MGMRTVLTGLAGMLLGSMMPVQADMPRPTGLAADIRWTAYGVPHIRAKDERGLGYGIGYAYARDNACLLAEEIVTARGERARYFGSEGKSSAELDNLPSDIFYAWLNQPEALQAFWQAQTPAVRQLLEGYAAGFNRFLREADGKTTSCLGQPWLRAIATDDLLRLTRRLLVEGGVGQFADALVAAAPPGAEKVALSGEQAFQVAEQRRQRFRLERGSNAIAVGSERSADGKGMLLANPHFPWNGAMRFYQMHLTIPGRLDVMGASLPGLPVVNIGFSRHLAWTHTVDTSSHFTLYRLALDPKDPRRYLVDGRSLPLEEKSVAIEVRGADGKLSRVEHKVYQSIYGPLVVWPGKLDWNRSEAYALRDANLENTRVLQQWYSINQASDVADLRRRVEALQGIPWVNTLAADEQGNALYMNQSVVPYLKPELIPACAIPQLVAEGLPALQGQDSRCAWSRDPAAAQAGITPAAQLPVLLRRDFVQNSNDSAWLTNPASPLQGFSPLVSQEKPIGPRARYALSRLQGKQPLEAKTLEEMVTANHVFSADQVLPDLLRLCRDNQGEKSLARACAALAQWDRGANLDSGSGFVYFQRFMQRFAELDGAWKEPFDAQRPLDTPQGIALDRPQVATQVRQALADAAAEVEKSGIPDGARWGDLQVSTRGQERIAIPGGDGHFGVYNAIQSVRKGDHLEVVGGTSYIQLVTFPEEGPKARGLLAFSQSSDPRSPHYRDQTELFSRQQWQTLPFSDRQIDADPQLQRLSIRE

[7] = target: T4, COUP transcription factor 2 (Homo sapiens, UniProt P24468); experiment: Luminescence-based cell-based high throughput dose response assay to identify inhibitors of COUP-TFII (NR2F2).; type: functional;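 also: HEK293 cells transiently cotransfected with COUP-TFII expression vector and reporter; luciferase reporter luminescence driven by COUP-TFII from the pX2-168 reporter plasmid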
T4 sequence (P24468 whole entry): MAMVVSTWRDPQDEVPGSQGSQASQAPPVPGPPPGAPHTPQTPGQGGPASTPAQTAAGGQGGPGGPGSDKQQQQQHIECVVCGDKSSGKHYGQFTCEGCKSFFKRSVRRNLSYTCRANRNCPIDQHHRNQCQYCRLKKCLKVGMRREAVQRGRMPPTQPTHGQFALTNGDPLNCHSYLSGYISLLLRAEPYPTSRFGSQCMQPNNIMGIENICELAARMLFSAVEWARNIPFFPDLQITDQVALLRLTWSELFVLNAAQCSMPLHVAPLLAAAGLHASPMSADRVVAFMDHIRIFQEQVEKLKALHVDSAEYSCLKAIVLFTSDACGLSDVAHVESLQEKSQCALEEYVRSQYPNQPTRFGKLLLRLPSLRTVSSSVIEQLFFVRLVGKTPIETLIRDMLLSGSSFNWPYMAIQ

[8] = reduced cellular PGC1a acetyl-lysine signal – cell-based, cherry-picked samples, dose response (AID 720514); type: functional;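 also: potency may reflect raised or lowered acetylation signal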
[9] = Trypanosoma cruzi growth suppression in host cells – NIH3T3 host cells, beta-gal luminescence, confirmation (AID 2044); type: functional, cell-based;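 also: intracellular parasites grown in NIH/3T3 mouse fibroblasts as host cells; luminescent beta-galactosidase reporter signal from transgenic T. cruzi replicating inside host cells; inhibitors lower the luminescence signal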
[10] = target: T5, Heat shock factor protein 1 (Mus musculus, UniProt P38532); experiment: decrease of HSF1-responsive luciferase luminescence – cell-based, NIH3T3, dose retest, confirmation (AID 2382); type: functional;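 also: NIH3T3 fibroblasts with HSF1-driven luciferase reporter stressed by proteasome inhibitor MG132; luminescence from HSF1-driven luciferase expression after 8 hours of MG132 stress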
T5 sequence (P38532 whole entry): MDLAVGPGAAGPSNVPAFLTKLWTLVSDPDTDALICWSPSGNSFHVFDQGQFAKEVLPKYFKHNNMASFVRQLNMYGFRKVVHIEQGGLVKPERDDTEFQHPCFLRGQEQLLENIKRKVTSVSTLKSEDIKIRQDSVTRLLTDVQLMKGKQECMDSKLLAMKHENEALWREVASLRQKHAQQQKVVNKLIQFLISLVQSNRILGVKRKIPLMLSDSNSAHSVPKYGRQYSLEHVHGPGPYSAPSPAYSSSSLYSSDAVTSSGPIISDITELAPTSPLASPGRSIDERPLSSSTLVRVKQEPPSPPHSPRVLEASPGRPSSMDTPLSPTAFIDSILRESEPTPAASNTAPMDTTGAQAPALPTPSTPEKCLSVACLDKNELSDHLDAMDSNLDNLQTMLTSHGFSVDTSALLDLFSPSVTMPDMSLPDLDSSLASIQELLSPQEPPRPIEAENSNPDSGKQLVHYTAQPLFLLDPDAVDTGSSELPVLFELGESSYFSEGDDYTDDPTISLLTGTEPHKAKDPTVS

[11] = target: Heat shock protein HSP 90-alpha (Homo sapiens, UniProt P07900); type: functional, organism-based
[12] = reduction of Shn3 3'UTR-driven luciferase in osteoblasts – cell-based, Clone20 osteoblasts, firefly luciferase, cherry-picked, dose response (AID 624132); type: functional;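 also: firefly luciferase luminescence from reporter carrying the Shn3 3'UTR in osteoblasts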
cells [13] = experiment: cells
[14] = loss of viability in HepG2 cells – cell-based, CellTiter-Glo, cherry-picked, cytotoxicity control for Shn3 inhibitor project, dose response (AID 624134); type: functional
[15] = non-specific 3'UTR reporter inhibition in Clone20-Shn3RL – cell-based, Renilla luciferase, cherry-picked, counter-screen for Shn3 inhibitor project, dose response (AID 624133); type: functional
[16] = viability loss in Vero cells – cytotoxicity control for Vif-APOBEC3G degradation inhibitor project, dose response (AID 1117358); type: functional; conditions: Vero
[17] = HIV-1 Vif–A3G interaction blockers – biochemical, TR-FRET, GST-Vif 1-94, biotin-A3G peptide, dose response retest, primary screen (AID 1117319); type: functional;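 also: TR-FRET signal of purified GST-Vif binding a biotinylated A3G peptide; inhibitors lower the FRET signal by blocking Vif and A3G binding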
[18] = Luminescence Cell-Based Dose Confirmation HTS to Identify Inhibitors of Platelet Dense Granule Release. [Related pubchem assays: 1663 (Primary HTS), 1678 (Summary of Project)]; type: functional
[19] = target: Luciferin 4-monooxygenase (Photinus pyralis, UniProt P08659); experiment: inhibition of purified Photinus pyralis luciferase – biochemical, luminescence, dose response (AID 1891)
Chain of Luciferin 4-monooxygenase (P08659 whole entry): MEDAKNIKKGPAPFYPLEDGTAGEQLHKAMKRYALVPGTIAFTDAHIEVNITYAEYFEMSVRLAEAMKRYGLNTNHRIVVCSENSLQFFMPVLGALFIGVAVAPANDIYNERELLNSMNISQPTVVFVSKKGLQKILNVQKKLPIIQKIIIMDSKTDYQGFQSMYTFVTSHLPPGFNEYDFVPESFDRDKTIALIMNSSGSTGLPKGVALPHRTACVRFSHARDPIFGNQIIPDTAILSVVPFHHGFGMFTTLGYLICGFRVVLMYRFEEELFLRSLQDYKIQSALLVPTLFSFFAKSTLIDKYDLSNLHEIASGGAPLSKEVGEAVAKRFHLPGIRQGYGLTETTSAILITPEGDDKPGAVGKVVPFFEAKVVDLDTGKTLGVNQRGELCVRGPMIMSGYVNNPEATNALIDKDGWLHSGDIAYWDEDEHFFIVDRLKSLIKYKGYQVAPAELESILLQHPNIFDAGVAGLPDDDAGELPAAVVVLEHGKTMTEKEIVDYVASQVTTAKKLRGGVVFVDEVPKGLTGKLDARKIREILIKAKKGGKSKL

cells [20] = type: functional, cell-based
cells [21] = type: functional, cell-based; remark: listed apart in the source
[22] = target: T6, Short transient receptor potential channel 4 (Mus musculus, UniProt Q9QUQ5); experiment: block of DAMGO-driven TRPC4 calcium entry – cell-based, HEK293 TRPC4/mu-opioid, Fluo-4 calcium, dose response (AID 434942); type: functional;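 also: potency of inhibitors blocking the TRPC4 calcium response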
T6 sequence (Q9QUQ5 whole entry): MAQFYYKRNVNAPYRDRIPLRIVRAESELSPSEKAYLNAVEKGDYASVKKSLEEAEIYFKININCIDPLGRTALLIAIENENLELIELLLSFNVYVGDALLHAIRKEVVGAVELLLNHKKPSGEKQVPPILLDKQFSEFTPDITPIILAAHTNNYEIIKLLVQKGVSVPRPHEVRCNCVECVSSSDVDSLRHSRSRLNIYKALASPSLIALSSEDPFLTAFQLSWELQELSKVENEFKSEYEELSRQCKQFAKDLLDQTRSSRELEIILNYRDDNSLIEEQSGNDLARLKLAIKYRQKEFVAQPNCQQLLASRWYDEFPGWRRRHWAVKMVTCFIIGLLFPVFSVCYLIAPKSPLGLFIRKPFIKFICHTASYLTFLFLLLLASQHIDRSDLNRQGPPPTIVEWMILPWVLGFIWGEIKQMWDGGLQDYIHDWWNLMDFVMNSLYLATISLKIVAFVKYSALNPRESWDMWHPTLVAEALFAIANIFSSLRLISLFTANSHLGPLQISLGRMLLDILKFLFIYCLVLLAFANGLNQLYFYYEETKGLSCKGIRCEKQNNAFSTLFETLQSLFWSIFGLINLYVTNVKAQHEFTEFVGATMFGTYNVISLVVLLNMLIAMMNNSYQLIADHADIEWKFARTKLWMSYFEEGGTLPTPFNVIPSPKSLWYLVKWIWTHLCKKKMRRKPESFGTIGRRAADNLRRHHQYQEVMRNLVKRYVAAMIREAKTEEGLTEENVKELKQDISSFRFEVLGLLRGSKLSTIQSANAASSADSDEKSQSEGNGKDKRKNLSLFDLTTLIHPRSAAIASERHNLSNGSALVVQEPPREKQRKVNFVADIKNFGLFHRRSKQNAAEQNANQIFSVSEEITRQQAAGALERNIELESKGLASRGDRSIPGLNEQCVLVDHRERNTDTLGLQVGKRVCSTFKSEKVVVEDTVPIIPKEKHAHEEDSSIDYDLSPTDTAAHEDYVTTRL

Cc1ccc(Nc2nc(NCC3CCCO3)nc(N)c2[N+](=O)[O-])cc1C (configuration not stated)
IC50 [1]: 6.09 µM (active)
IC50 [2]: > 111 µM (not active)

CCOC(=O)c1ccc(NC(=O)CCc2c(C)nc3ncnn3c2C)cc1
IC50 [3]: > 100 µM (active)

COc1ccc(C(=O)Nc2ccc(O)c3c(=O)cc(-c4cccc(Cl)c4)oc23)cc1
CC50 (Vero [4]): 2.74 µM (active)
IC50 (Vero [5]): > 100 µM (active)

CCCc1nn(C)c(C(=O)Nc2ccc(CC)cc2)c1Cl
IC50 [3]: > 100 µM (active)

CN1C(=O)N(C)C2(c3ccccc3)Nn3c(s/c(=C/c4ccco4)c3=O)=NC12c1ccccc1 (configuration not stated)
IC50 [1]: > 5.47 µM (active)
IC50 [2]: > 111 µM (not active)

O=C(NC1CCCCCCC1)c1cc(F)c(F)cc1Cl
AC50 [6]: 52.8 µM (active)

COC(=O)c1c(NC(=O)C(Cl)Cl)sc2c1C(C(=O)OC)CC2 (configuration not stated)
CC50 (Vero [4]): 34.8 µM (active)
IC50 (Vero [5]): 27.8 µM (active)

COc1ccc(CC(C)Nc2cccc(F)c2)cc1 (configuration not stated)
AC50 [6]: 14.5 µM (active)

CCOc1cc(C(=O)OCC(=O)c2c(N)n(C)c(=O)n(C)c2=O)cc(OCC)c1OCC
IC50 [1]: 19.3 µM (not active)
IC50 [2]: > 111 µM (not active)

C[C@H]1C[C@@H](C)C(=O)[C@@H]([C@H](O)CC2CC(=O)NC(=O)C2)C1
CC50 (Vero [4]): 0.96 µM (active)
IC50 [7]: 1.03 µM (active)
AC50 [8]: 4.92 µM (active)
EC50 [9]: < 0.1 µM (active)
EC50 [10]: 0.66 µM (active)
AC50 [11]: < 0.195 µM (active)
IC50 (Vero [5]): 0.43 µM (active)
AC50 [12]: 0.307 µM (active)
EC50 (cells [13]): < 0.004 µM (active)
AC50 [14]: > 70 µM (inactive)
AC50 [15]: 2.18 µM (active)

COc1ccccc1NC(=O)c1cc2ccc(O)cc2o/c1=N\O
CC50 [16]: > 40 µM (active)
IC50 [17]: > 100 µM (active)
EC50 [18]: 6.14 µM (active)
EC50 [19]: 1.03 µM (active)

Cc1nn(C(=O)c2cccnc2)c(C)c1Sc1ccccc1
EC50 (cells [20]): > 350 µM (not active)
EC50 (cells [21]): > 350 µM (not active)
EC50 [22]: 3.35 µM (active)
